According to publication PMC6375636, “Monotherapy with a low-dose lipopeptide HIV fusion inhibitor maintains long-term viral suppression in rhesus macaques” (PLoS Pathogens, 2019):
Peptide text beside a SMILES is read from it. * marks the point of attachment. Stearoyl = CCCCCCCCCCCCCCCCCC(=O)*; Palmitoyl = CCCCCCCCCCCCCCCC(=O)*

Assays:
Type in all cases: cell-based
[1] = system: HIV-1 pseudovirus, primary Env SC422661.8; conditions: Env SC422661.8, subtype B; mean ± SD of 3 assays in triplicate
Outline: (§1)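 HEK293T-derived virus (Env + pSG3Δenv pseudovirus, or molecular-clone isolate), titred as TCID50 on TZM-bl; 100 TCID50 + 3-fold cmpd dilutions, 1 h RT; onto TZM-bl 10^4/well, 48 h 37°C; luciferase read-out.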

[2] = molecular target: HIV-1 R3A; conditions: Table 2, subtype B, R5X4, mean ± SD of 3 assays in triplicate
Outline: as §1

[3] = molecular target: HIV-1 LAI; conditions: Table 2, subtype B, X4, mean ± SD of 3 assays in triplicate
Outline: as §1

[4] = system: HIV-1 pseudovirus, primary Env CNE8; conditions: Env CNE8, subtype A/E; mean ± SD of 3 assays in triplicate
Outline: as §1

[5] = system: HIV-1 pseudovirus, primary Env CAP45.2.00.G3; conditions: Env CAP45.2.00.G3, subtype C; mean ± SD of 3 assays in triplicate
Outline: as §1

[6] = system: HIV-1 pseudovirus, primary Env B01; conditions: Env B01, subtype B'; mean ± SD of 3 assays in triplicate
Outline: as §1

[7] = system: HIV-1 pseudovirus, primary Env CE703010217_B6; conditions: Env CE703010217_B6, subtype C; mean ± SD of 3 assays in triplicate
Outline: as §1

[8] = system: HIV-1 pseudovirus, primary Env 246_F3_C10_2; conditions: Env 246_F3_C10_2, subtype A/C; mean ± SD of 3 assays in triplicate
Outline: as §1

[9] = system: HIV-1 pseudovirus, primary Env AC10.0.29; conditions: Env AC10.0.29, subtype B; mean ± SD of 3 assays in triplicate
Outline: as §1

[10] = molecular target: HIV-1 RHPA.c/2635; conditions: Table 2; RHPA.c/2635, subtype B, R5; mean ± SD of 3 assays in triplicate
Outline: as §1

[11] = system: HIV-1 pseudovirus, primary Env CNE55; conditions: Env CNE55, subtype A/E; mean ± SD of 3 assays in triplicate
Outline: as §1

[12] = molecular target: HIV-1 89.6; conditions: Table 2; 89.6, subtype B, R5X4; mean ± SD of 3 assays in triplicate
Outline: as §1

[13] = system: HIV-1 pseudovirus, primary Env GX11.13; conditions: Env GX11.13, subtype A/E; mean ± SD of 3 assays in triplicate
Outline: as §1

[14] = system: HIV-1 pseudovirus, primary Env X1632-S2-B10; conditions: Env X1632-S2-B10, subtype G; mean ± SD of 3 assays in triplicate
Outline: as §1

[15] = system: HIV-1 pseudovirus, primary Env X2278_C2_B6; conditions: Env X2278_C2_B6, subtype B; mean ± SD of 3 assays in triplicate
Outline: as §1

[16] = system: HIV-1 pseudovirus, primary Env HIV_25710–2.43; conditions: Env HIV_25710–2.43, subtype C; mean ± SD of 3 assays in triplicate
Outline: as §1

[17] = system: HIV-1 pseudovirus, primary Env 43–22; conditions: Env 43–22, subtype B'; mean ± SD of 3 assays in triplicate
Outline: as §1

[18] = system: HIV-1 pseudovirus, primary Env 398-F1_F6_20; conditions: Env 398-F1_F6_20, subtype A; mean ± SD of 3 assays in triplicate
Outline: as §1

[19] = system: HIV-1 pseudovirus, primary Env Du156; conditions: Env Du156, subtype C; mean ± SD of 3 assays in triplicate
Outline: as §1

[20] = system: HIV-1 pseudovirus, primary Env CAP210.2.00.E8; conditions: Env CAP210.2.00.E8, subtype C; mean ± SD of 3 assays in triplicate
Outline: as §1

[21] = molecular target: HIV-1 THRO.c/2626; conditions: Table 2; THRO.c/2626, subtype B, R5; mean ± SD of 3 assays in triplicate
Outline: as §1

[22] = system: HIV-1 pseudovirus, primary Env 92RW020; conditions: Env 92RW020, subtype A; mean ± SD of 3 assays in triplicate
Outline: as §1

[23] = molecular target: HIV-1 WITO.c/2474; conditions: Table 2; WITO.c/2474, subtype B, R5; mean ± SD of 3 assays in triplicate
Outline: as §1

[24] = system: HIV-1 pseudovirus, primary Env SHX335.24; conditions: Env SHX335.24, subtype A/E; mean ± SD of 3 assays in triplicate
Outline: as §1

[25] = molecular target: HIV-1 SG3; conditions: Table 2; SG3, subtype B, X4; mean ± SD of 3 assays in triplicate
Outline: as §1

[26] = system: HIV-1 pseudovirus, primary Env CH070.1; conditions: Env CH070.1, subtype B/C; mean ± SD of 3 assays in triplicate
Outline: as §1

[27] = system: HIV-1 pseudovirus, primary Env CH120.6; conditions: Env CH120.6, subtype B/C; mean ± SD of 3 assays in triplicate
Outline: as §1

Row | Molecule | IC50 [1] | IC50 [2] | IC50 [3] | IC50 [4] | IC50 [5] | IC50 [6] | IC50 [7] | IC50 [8] | IC50 [9] | IC50 [10] | IC50 [11] | IC50 [12] | IC50 [13] | IC50 [14] | IC50 [16] | IC50 [17] | IC50 [18] | IC50 [19] | IC50 [20] | IC50 [21] | other results
1 | CCCCCCCCCCCCCCCCCC(=O)NCCCC[C@H](NC(=O)[C@H](CCC(=O)O)NC(=O)[C@H](CC(C)C)NC(=O)[C@H](CCCCN)NC(=O)[C@H](CCCCN)NC(=O)[C@H](CC(C)C)NC(=O)[C@H](CCC(=O)O)NC(=O)[C@H](CCC(=O)O)NC(=O)[C@H](CCC(=O)O)NC(=O)[C@H](CC(N)=O)NC(=O)[C@H](CCCCN)NC(=O)[C@H](CCCCN)NC(=O)[C@H](CCC(N)=O)NC(=O)[C@H](CCC(N)=O)NC(=O)[C@H](CCC(=O)O)NC(=O)[C@H](CCC(=O)O)NC(=O)[C@H](C)NC(=O)[C@H](CCCCN)NC(=O)[C@H](CCCCN)NC(=O)[C@H](CC(C)C)NC(=O)[C@H](CC(C)C)NC(=O)[C@H](CCC(=O)O)NC(=O)[C@H](CCC(=O)O)NC(=O)[C@@H](NC(C)=O)[C@@H](C)CC)C(N)=O [LP-90] (Ac-IEELLKKAEEQQKKNEEELKKLEK(Stearoyl)-NH2) | 0.0385 ± 0.00705 nM | 0.00932 ± 0.00121 nM | 0.00834 ± 0.00154 nM | 0.0225 ± 0.0026 nM | 0.00214 ± 0.00013 nM | 0.018 ± 0.00158 nM | 0.0112 ± 0.00083 nM | 0.00684 ± 0.00047 nM | 0.00442 ± 0.00028 nM | 0.00536 ± 0.00166 nM | 0.00254 ± 0.00089 nM | 0.0574 ± 0.0109 nM | 0.0248 ± 0.00159 nM | 0.0284 ± 0.00411 nM | 0.016 ± 0.00293 nM | 0.0039 ± 0.00133 nM | 0.00632 ± 0.00046 nM | 0.00363 ± 0.00067 nM | 0.0291 ± 0.00133 nM | 0.0146 ± 0.00224 nM | IC50 [15]: 0.00104 ± 0.00022 nM; IC50 [22]: 0.0151 ± 0.00062 nM; IC50 [23]: 0.00406 ± 0.00167 nM; IC50 [24]: 0.00301 ± 0.0002 nM; IC50 [25]: 0.00167 ± 0.00061 nM; IC50 [26]: 0.0317 ± 0.00204 nM; IC50 [27]: 0.0254 ± 0.00162 nM
2 | CCCCCCCCCCCCCCCC(=O)NCCCC[C@H](NC(=O)[C@H](CCC(=O)O)NC(=O)[C@H](CC(C)C)NC(=O)[C@H](CCCCN)NC(=O)[C@H](CCCCN)NC(=O)[C@H](CC(C)C)NC(=O)[C@H](CCC(=O)O)NC(=O)[C@H](CCC(=O)O)NC(=O)[C@H](CCC(=O)O)NC(=O)[C@H](CC(N)=O)NC(=O)[C@H](CCCCN)NC(=O)[C@H](CCCCN)NC(=O)[C@H](CCC(N)=O)NC(=O)[C@H](CCC(N)=O)NC(=O)[C@H](CCC(=O)O)NC(=O)[C@H](CCC(=O)O)NC(=O)[C@H](C)NC(=O)[C@H](CCCCN)NC(=O)[C@H](CCCCN)NC(=O)[C@H](CC(C)C)NC(=O)[C@H](CC(C)C)NC(=O)[C@H](CCC(=O)O)NC(=O)[C@H](CCC(=O)O)NC(=O)[C@@H](NC(=O)[C@H](CCCCN)NC(=O)[C@H](CCC(N)=O)NC(=O)[C@H](CCC(=O)O)NC(=O)[C@H](Cc1c[nH]c2ccccc12)NC(C)=O)[C@@H](C)CC)C(N)=O [LP-52, reference compound] (Ac-WEQKIEELLKKAEEQQKKNEEELKKLEK(Palmitoyl)-NH2) | 0.00939 ± 0.00176 nM | 0.0136 ± 0.00199 nM | 0.0122 ± 0.00093 nM | 0.00497 ± 0.00131 nM | 0.00758 ± 0.00064 nM | 0.00706 ± 0.00116 nM | 0.0117 ± 0.00137 nM | 0.0175 ± 0.00191 nM | 0.00971 ± 0.00081 nM | 0.00942 ± 0.00134 nM | 0.0173 ± 0.00141 nM | 0.0175 ± 0.00205 nM | 0.0087 ± 0.00088 nM | 0.0245 ± 0.00239 nM | 0.0141 ± 0.00191 nM | 0.00783 ± 0.00074 nM | 0.00948 ± 0.00174 nM | 0.00466 ± 0.00075 nM | 0.0393 ± 0.00357 nM | 0.0271 ± 0.00461 nM | IC50 [15]: 0.00117 ± 0.00022 nM; IC50 [22]: 0.0393 ± 0.00151 nM; IC50 [23]: 0.00529 ± 0.00161 nM; IC50 [24]: 0.0189 ± 0.00034 nM; IC50 [25]: 0.00522 ± 0.00189 nM; IC50 [26]: 0.0276 ± 0.00333 nM; IC50 [27]: 0.0199 ± 0.00148 nM
3 | CCCCCCCCCCCCCCCCCC(=O)NCCCC[C@H](NC(=O)[C@H](CCC(=O)O)NC(=O)[C@H](CC(C)C)NC(=O)[C@H](CCCCN)NC(=O)[C@H](CCCCN)NC(=O)[C@H](CC(C)C)NC(=O)[C@H](CCC(=O)O)NC(=O)[C@H](CCC(=O)O)NC(=O)[C@H](CCC(=O)O)NC(=O)[C@H](CC(N)=O)NC(=O)[C@H](CCCCN)NC(=O)[C@H](CCCCN)NC(=O)[C@H](CCC(N)=O)NC(=O)[C@H](CCC(N)=O)NC(=O)[C@H](CCC(=O)O)NC(=O)[C@H](CCC(=O)O)NC(=O)[C@H](C)NC(=O)[C@H](CCCCN)NC(=O)[C@H](CCCCN)NC(=O)[C@H](CC(C)C)NC(=O)[C@H](CC(C)C)NC(=O)[C@H](CCC(=O)O)NC(=O)[C@H](CCC(=O)O)NC(=O)[C@@H](NC(=O)[C@H](CCCCN)NC(=O)[C@H](CCC(N)=O)NC(=O)[C@H](CCC(=O)O)NC(=O)[C@H](Cc1c[nH]c2ccccc12)NC(C)=O)[C@@H](C)CC)C(N)=O [LP-80] (Ac-WEQKIEELLKKAEEQQKKNEEELKKLEK(Stearoyl)-NH2) | 0.00255 ± 0.00077 nM | 0.00567 ± 0.00085 nM | 0.00585 ± 0.00086 nM | 0.00356 ± 0.0007 nM | 0.00169 ± 0.00048 nM | 0.00349 ± 0.0004 nM | 0.00572 ± 0.00132 nM | 0.00405 ± 0.00047 nM | 0.00501 ± 0.00093 nM | 0.00481 ± 0.00198 nM | 0.00111 ± 0.00018 nM | 0.00527 ± 0.0003 nM | 0.00485 ± 0.00099 nM | 0.00556 ± 0.00076 nM | 0.0032 ± 0.00068 nM | 0.00324 ± 0.00027 nM | 0.00149 ± 0.00026 nM | 0.0011 ± 0.00035 nM | 0.0106 ± 0.00256 nM | 0.0149 ± 0.00193 nM | IC50 [22]: 0.00974 ± 0.00093 nM; IC50 [23]: 0.00338 ± 0.00109 nM; IC50 [24]: 0.00283 ± 0.00066 nM; IC50 [25]: 0.0018 ± 0.00042 nM; IC50 [26]: 0.0285 ± 0.00063 nM; IC50 [27]: 0.0106 ± 0.00102 nM
4 | enfuvirtide [Lipopeptide T-20, reference compound] | 16.1 ± 2.24 nM | 6.73 ± 1.08 nM | 1.16 ± 0.103 nM | 24.8 ± 1.88 nM | 13.6 ± 2.04 nM | 84.4 ± 3.69 nM | 41.8 ± 2.22 nM | 36.2 ± 3.7 nM | 2.85 ± 0.103 nM | 6.52 ± 1.33 nM | 25.1 ± 2.33 nM | 15.4 ± 5.88 nM | 24.9 ± 2.21 nM | 15.6 ± 2.01 nM | 13.7 ± 1.85 nM | 23.2 ± 0.593 nM | 19.4 ± 1.71 nM | 15.7 ± 1.58 nM | 123 ± 4.77 nM | 31.3 ± 2.39 nM | IC50 [15]: 5.66 ± 0.0744 nM; IC50 [22]: 3.24 ± 0.232 nM; IC50 [23]: 7.81 ± 1.62 nM; IC50 [24]: 40.6 ± 1.42 nM; IC50 [25]: 2.85 ± 0.227 nM; IC50 [26]: 165 ± 28.3 nM; IC50 [27]: 48.1 ± 4.92 nM
